Assays:
MMP-9 = MMP-9 (Homo sapiens, UniProt P14780); assay: Fluorometric substrate assay (MMP inhibitor profiling kit); type: biochemical; set-up: purchased Enzo life sciences BML-AK308
Method: (§1) Kit contained a panel of ten MMPs and a quenched fluorogenic substrate OMNIMMP® RED. Composition of a quenched fluorogenic substrate was TQ3-GABA-Pro-Cha-Abu-Smc-His-Ala-Dab(6’-TAMRA)-Ala-Lys-NH2 [TQ3 = quencher; GABA = 4-aminobutyric acid; Cha = L-cyclohexylalanine; Abu = 2-aminobutyric acid; Smc = S-methyl-L-cysteine; Dab = 2,4-diaminobutyric acid; 6’-TAMRA = 6’-tetramethylrhodamine]. Experiment was performed as per instructions provided in the manufacturer’s manual. The assays were performed in a 96-well, black, flat, microplate format. The compound NNGH was provided as a prototypic control inhibitor. […] Untreated MMPs were used as control. The experiment was performed in biological triplicates. After 60-min incubation, fluorogenic substrate OMNIMMP® RED was added to each reaction/well to start the reaction. The plate was continuously read at Ex/Em = 545/576 nm (cutoff at 570 nm) for 30 min with 1-min time intervals at constant temperature, 37 °C, using Molecular Devices SpectraMax M3 plate reader with SoftMax Pro 6.2 software.

MMP-2 [1] = target: T1, MMP-2 (Homo sapiens, UniProt P08253); assay: as above; type: biochemical; set-up: purchased Enzo life sciences BML-AK308
T1 sequence (P08253 110-660): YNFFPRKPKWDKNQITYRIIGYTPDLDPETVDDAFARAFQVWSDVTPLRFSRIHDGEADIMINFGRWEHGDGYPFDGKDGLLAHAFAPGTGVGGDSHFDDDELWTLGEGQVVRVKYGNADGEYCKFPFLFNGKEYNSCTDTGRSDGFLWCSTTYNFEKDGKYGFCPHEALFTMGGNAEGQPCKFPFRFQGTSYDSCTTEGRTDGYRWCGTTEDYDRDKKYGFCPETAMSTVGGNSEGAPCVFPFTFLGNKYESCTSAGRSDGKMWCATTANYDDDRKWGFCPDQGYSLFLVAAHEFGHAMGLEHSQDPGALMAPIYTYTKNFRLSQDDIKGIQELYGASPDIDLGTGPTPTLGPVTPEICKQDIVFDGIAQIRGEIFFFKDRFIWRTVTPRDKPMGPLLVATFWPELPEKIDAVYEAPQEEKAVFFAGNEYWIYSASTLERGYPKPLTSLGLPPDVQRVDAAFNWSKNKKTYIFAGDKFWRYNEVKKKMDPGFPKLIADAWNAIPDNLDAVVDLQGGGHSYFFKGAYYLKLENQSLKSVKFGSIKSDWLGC
Method: as §1

[2] = tested on: infants born to women receiving DTG at conception; conditions: cited from earlier work
MMP-2 [3] = target: T1, MMP-2; assay: Gelatin zymography of medium of PMA-stimulated THP-1 cells; type: cell-based; conditions: 100 µM, 18 h, compared to controls
Method: THP-1 cells were plated in 12-well plates at a density of 1 × 10^6 cells per well. First, THP-1 were treated with phorbol-12-myristate-13-acetate (PMA) for 24 h to promote the differentiation of cells into macrophages and stimulate MMP secretion. […] For each treatment, biological triplicate samples were utilized. Following treatment, cell medium was collected from each well and centrifuged at 800 × g for 10 min at 4 °C to remove any cell debris. Collected samples were stored at − 80 °C for further analysis. A 10% SDS–polyacrylamide gel containing 0.1% gelatin was loaded with 3 µg of protein from cell medium for gelatin zymography. In parallel, second 10% SDS–polyacrylamide gel was used to assess equal protein loading. In addition, recombinant human MMP-2 and MMP-9 (10 ng each) were loaded as standards (EMD Millipore, Burlington, MA). Gel ran at 60 V until the loading dye reached the bottom of the gel. After the run, the gelatin gel was washed with water for 15 min and incubated in renaturation buffer [2.5% (v/v) Triton X-100 in Milli-Q water] for 60 min at room temperature. The renaturation buffer was replaced with a fresh renaturation buffer at the interval of 30 min. […] Relative activity of MMPs was measured by quantitating band density by ImageJ software and normalized with respective standard.

HIV-1 integrase = conditions: read-out: IC50 as INSTI; cited from earlier work

Chain of MMP-9 (P14780 94-707): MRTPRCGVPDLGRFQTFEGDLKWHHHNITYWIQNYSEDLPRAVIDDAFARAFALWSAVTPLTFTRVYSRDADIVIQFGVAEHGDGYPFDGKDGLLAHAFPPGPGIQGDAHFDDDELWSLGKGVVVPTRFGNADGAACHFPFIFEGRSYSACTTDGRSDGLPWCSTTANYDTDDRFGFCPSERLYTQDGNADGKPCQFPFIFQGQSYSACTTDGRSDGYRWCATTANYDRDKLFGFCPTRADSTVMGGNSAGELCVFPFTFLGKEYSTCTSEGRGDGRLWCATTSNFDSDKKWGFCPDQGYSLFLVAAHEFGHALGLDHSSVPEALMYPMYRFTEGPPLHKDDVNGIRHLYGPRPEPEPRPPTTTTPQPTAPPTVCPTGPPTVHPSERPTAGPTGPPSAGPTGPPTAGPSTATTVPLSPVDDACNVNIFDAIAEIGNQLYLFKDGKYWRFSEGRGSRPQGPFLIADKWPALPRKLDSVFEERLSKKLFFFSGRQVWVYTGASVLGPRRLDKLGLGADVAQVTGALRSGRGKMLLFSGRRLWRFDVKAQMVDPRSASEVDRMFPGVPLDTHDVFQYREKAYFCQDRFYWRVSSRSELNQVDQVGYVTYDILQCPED

C[C@@H]1CCO[C@H]2Cn3cc(C(=O)NCc4ccc(F)cc4F)c(=O)c(O)c3C(=O)N12 [DTG, Dolutegravir]
inhibitory effect compared to doxycycline (MMP-9; MMP-9, 20 µM): higher inhibitory effect | IC50 (MMP-9; human recombinant MMP-9, 60 min preincubation, four-parameter fit): 11.1 µM | inhibitory effect compared to doxycycline (MMP-2 [1]; MMP-2, 20 µM): higher inhibitory effect | IC50 (MMP-2 [1]; human recombinant MMP-2, 60 min preincubation, four-parameter fit): 16.9 µM | overall clinical prevalence of NTDs among infants born to women receiving DTG at conception [2]: ~ 0.3% | risk of NTDs relative to other ARTs at conception ([2]; extended surveillance in Botswana): 2–3 times | Relative activity of pro and active forms of MMP-2 (MMP-2 [3]): significantly decreased | IC50 (HIV-1 integrase): 0.0027 µM

— paper PMC8599359 (Molecular Neurobiology, 2021)
